Reference: US20240124470A1, “FIVE-MEMBERED RING DERIVATIVE AND MEDICAL USE THEREOF” (SICHUAN HAISCO PHARMACEUTICAL CO., LTD., priority 2020, published 2024)
pEC50: −log10 of the molar value. Where a name gives a salt, the structure may show the parent alone. Read-outs that look alike come from different tables or passages of the source.

Target: T1, GLP-1 receptor (Homo sapiens, UniProt P43220)
T1 construct: expressed in transfected cells
Assay: HEK293/CRE-luc/GLP-1R cell luciferase reporter test (agonistic effect on GLP-1 receptor)
Type: cell-based
Conditions: HEK293/CRE-luc/GLP-1R cells
Description: 1. HEK293/CRE-luc/GLP-1β cell viability
Cell: HEK293/CRE-luc/GLP-1R
Cell culture medium: DMEM+10% FBS+400 μg/ml G418+100 μg/ml Hygromycin B
Frozen stock solution: 90% FBS, 10% (V/V) DMSO
Detection buffer: DMEM+1% FBS
Cells were cultured in DMEM medium+10% FBS+400 μg/ml G418+100 μg/ml Hygromycin B in a CO2 incubator at 37° C., and passaged once every 3-4 days.
Cell plating: Trypsinization adjusted the cell density to 1.67×10^5 cells/mL; 60 μL of cells per well (10000 cells/well) was inoculated in a 384-well plate containing compounds; A NC well (negative control) and a background well (no cells) were set. Incubation was performed for about 18+2 h in the incubator.
Compounds were serially diluted with the detection buffer, and the detection concentration was 0.01 nM-1000 nM.
The cell culture plate was removed and all supernatant was aspirated from the cells. The cells were washed gently 2 times with 1×PBS.
The diluted compound was added to a 384-well plate (10 μL/well), and three replicate wells were set for each concentration. 10 μL of the detection buffer was added to the NC well, sealed and incubated at 37° C. for 6 hours.
The plate was removed, the cells were allowed to equilibrate to room temperature (at least 15 min), and then all supernatant was aspirated from the cells.
Steady-Glo® Reagent was added to the sample well at 10 μL/well and incubated at room temperature for 5 min to lyse the cells.
The test results were read with a BMG microplate reader.
The mean background value was calculated.
The induction factor (Fold of induction, FI)=(induction well value−background value)/(negative control well value −background value) was calculated.
The EC50 value of the sample was calculated using Graphpad Prim 8.0 software using four-parameter fitting analysis.
Mean and standard error (Mean±SEM) were calculated for all results and Graphpad Prism software was used for statistical analysis. Specific data were presented in the form of graphs. P<0.05 was considered to be statistically different.

[1] = 6 hours incubation, class symbols, read-out: EC50
[2] = bound stated, read-out: EC50 value

T1 sequence (P43220 24-463): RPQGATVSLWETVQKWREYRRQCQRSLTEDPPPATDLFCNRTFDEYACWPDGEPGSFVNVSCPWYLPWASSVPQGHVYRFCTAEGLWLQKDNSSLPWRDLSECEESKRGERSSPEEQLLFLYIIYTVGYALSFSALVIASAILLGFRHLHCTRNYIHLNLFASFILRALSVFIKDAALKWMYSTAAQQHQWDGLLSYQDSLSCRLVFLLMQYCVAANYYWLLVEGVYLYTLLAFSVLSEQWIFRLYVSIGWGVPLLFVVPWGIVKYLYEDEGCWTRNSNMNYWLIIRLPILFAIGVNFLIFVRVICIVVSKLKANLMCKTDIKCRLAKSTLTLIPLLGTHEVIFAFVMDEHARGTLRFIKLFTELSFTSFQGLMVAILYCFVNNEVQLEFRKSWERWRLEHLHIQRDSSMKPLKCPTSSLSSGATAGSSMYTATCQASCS

Structure (SMILES) | pEC50 [1] | pEC50 [2]
N#Cc1ccc(COc2cccc(-c3cc(F)c(Cc4nc5sc(C(=O)O)cc5n4C[C@@H]4CCO4)cc3F)n2)c(F)c1 [Compound 21, (S)-2-(4-(6-((4-cyano-2-fluorobenzyl)oxy)pyridin-2-yl)-2,5-difluorobenzyl)-1-(oxetan-2-ylmethyl)-1H-thieno[2,3-d]imidazole-5-carboxylic acid] | > 8.00 | > 8.00
CC1(c2ccc(Cl)cc2F)Oc2cccc(-c3ccc(Cc4nc5sc(C(=O)O)cc5n4C[C@@H]4CCO4)cc3)c2O1 (stereo partly drawn) [Compound 11, 2-(4-(2-(4-chloro-2-fluorophenyl)-2-methylbenzo[d][1,3]dioxol-4-yl)benzyl)-1-(((S)-oxetan-2-yl)methyl)-1H-thieno[2,3-d]imidazole-5-carboxylic acid] | > 8.00 | > 8.00
CC1(c2ccc(Cl)cc2F)Oc2cccc(-c3ccc(Cc4nc5sc(C(=O)O)cc5n4C[C@@H]4CCO4)c(F)c3)c2O1 (stereo partly drawn) [Compound 10, 2-(4-(2-(4-chloro-2-fluorophenyl)-2-methylbenzo[d][1,3]dioxol-4-yl)-2-fluorobenzyl)-1-(((S)-oxetan-2-yl)methyl)-1H-thieno[2,3-d]imidazole-5-carboxylic acid] | > 8.00 | > 8.00
N#Cc1ccc(COc2nc(C3CCN(Cc4nc5sc(C(=O)O)cc5n4C[C@@H]4CCO4)CC3)ccc2F)c(F)c1 [Compound 17, (S)-2-((4-(6-((4-cyano-2-fluorobenzyl)oxy)-5-fluoropyridin-2-yl)piperidin-1-yl)methyl)-1-(oxetan-2-ylmethyl)-1H-thieno[2,3-d]imidazole-5-carboxylic acid] | > 8.00 | > 8.00
CC1(c2ccc(C#N)cc2F)Oc2cccc(C3CCN(Cc4nc5sc(C(=O)O)cc5n4C[C@@H]4CCO4)CC3)c2O1 (stereo partly drawn) [Compound 5, 2-((4-(2-(4-cyano-2-fluorophenyl)-2-methylbenzo[d][1,3]dioxol-4-yl)piperidin-1-yl)methyl)-1-(((S)-oxetan-2-yl)methyl)-1H-thieno[2,3-d]imidazole-5-carboxylic acid] | > 8.00 | > 8.00
N#Cc1ccc(COc2cccc(N3CCN(Cc4nc5sc(C(=O)O)cc5n4C[C@@H]4CCO4)CC3)n2)c(F)c1 [Compound 13, (S)-2-((4-(6-((4-cyano-2-fluorobenzyl)oxy)pyridin-2-yl)piperazin-1-yl)methyl)-1-(oxetan-2-ylmethyl)-1H-thieno[2,3-d]imidazole-5-carboxylic acid] | > 8.00 | > 8.00
N#Cc1ccc(COc2cccc(-c3cc(F)c(Cc4nc5sc(C(=O)O)cc5n4C[C@@H]4CCO4)cc3F)n2)cc1 [Compound 23, (S)-2-(4-(6-((4-cyanobenzyl)oxy)pyridin-2-yl)-2,5-difluorobenzyl)-1-(oxetan-2-ylmethyl)-1H-thieno[2,3-d]imidazole-5-carboxylic acid] | > 8.00 | > 8.00
N#Cc1ccc(COc2nc(-c3cc(F)c(Cc4nc5sc(C(=O)O)cc5n4C[C@@H]4CCO4)cc3F)ccc2F)c(F)c1 [Compound 22, (S)-2-(4-(6-((4-cyano-2-fluorobenzyl)oxy)-5-fluoropyridin-2-yl)-2,5-difluorobenzyl)-1-(oxetan-2-ylmethyl)-1H-thieno[2,3-d]imidazole-5-carboxylic acid] | > 8.00 | > 8.00
Cc1cc(Cc2nc3sc(C(=O)O)cc3n2C[C@@H]2CCO2)c(F)cc1-c1cccc(OCc2ccc(C#N)cc2F)n1 [Compound 8, (S)-2-(4-(6-((4-cyano-2-fluorobenzyl)oxy)pyridin-2-yl)-2-fluoro-5-methylbenzyl)-1-(oxetan-2-ylmethyl)-1H-thieno[2,3-d]imidazole-5-carboxylic acid] | > 8.00 | > 8.00
N#Cc1ccc(COc2cccc(C3CCN(Cc4nc5sc(C(=O)O)cc5n4C[C@@H]4CCO4)CC3)n2)c(F)c1 [Trifluoroacetate salt of compound 1, (S)-2-((4-(6-((4-cyano-2-fluorobenzyl)oxy)pyridin-2-yl)piperidin-1-yl)methyl)-1-(oxetan-2-ylmethyl)-1H-thieno[2,3-d]imidazole-5-carboxylic acid] | > 8.00 | > 8.00
N#Cc1ccc(COc2cccc(C3=CCN(Cc4nc5sc(C(=O)O)cc5n4C[C@@H]4CCO4)CC3)n2)c(F)c1 [Trifluoroacetate salt of compound 2, (S)-2-((6-((4-cyano-2-fluorobenzyl)oxy)-3′,6′-dihydro-[2,4′-bipyridin]-1′(2′H)-yl)methyl)-1-(oxetan-2-ylmethyl)-1H-thieno[2,3-d]imidazole-5-carboxylic acid] | > 8.00 | > 8.00
N#Cc1ccc(COc2ncccc2C2CCN(Cc3nc4sc(C(=O)O)cc4n3C[C@@H]3CCO3)CC2)c(F)c1 [Compound 15, (S)-2-((4-(2-((4-cyano-2-fluorobenzyl)oxy)pyridin-3-yl)piperidin-1-yl)methyl)-1-(oxetan-2-ylmethyl)-1H-thieno[2,3-d]imidazole-5-carboxylic acid] | > 8.00 | > 8.00
N#Cc1ccc(COc2cccc(-c3ccc(Cc4nc5sc(C(=O)O)cc5n4C[C@@H]4CCO4)cc3)n2)c(F)c1 [Compound 7, (S)-2-(4-(6-((4-cyano-2-fluorobenzyl)oxy)pyridin-2-yl)benzyl)-1-(oxetan-2-ylmethyl)-1H-thieno[2,3-d]imidazole-5-carboxylic acid] | > 8.00 | > 8.00
N#Cc1ccc(COc2cccc(-c3ccc(Cc4nc5sc(C(=O)O)cc5n4C[C@@H]4CCO4)c(F)c3)n2)cc1 [Compound 20, (S)-2-(4-(6-((4-cyanobenzyl)oxy)pyridin-2-yl)-2-fluorobenzyl)-1-(oxetan-2-ylmethyl)-1H-thieno[2,3-d]imidazole-5-carboxylic acid] | > 8.00 | > 8.00
CC1(c2ccc(Cl)cc2F)Oc2cccc(C3CCN(Cc4nc5sc(C(=O)O)cc5n4C[C@@H]4CCO4)CC3)c2O1 (stereo partly drawn) [Compound 4, 2-((4-(2-(4-chloro-2-fluorophenyl)-2-methylbenzo[d][1,3]dioxol-4-yl)piperidin-1-yl)methyl)-1-(((S)-oxetan-2-yl)methyl)-1H-thieno[2,3-d]imidazole-5-carboxylic acid] | > 8.00 | > 8.00
N#Cc1ccc(COc2nc(-c3ccc(Cc4nc5sc(C(=O)O)cc5n4C[C@@H]4CCO4)c(F)c3)ccc2F)c(F)c1 [Compound 18, (S)-2-(4-(6-((4-cyano-2-fluorobenzyl)oxy)-5-fluoropyridin-2-yl)-2-fluorobenzyl)-1-(oxetan-2-ylmethyl)-1H-thieno[2,3-d]imidazole-5-carboxylic acid] | > 8.00 | > 8.00
CC1(c2ccc(Cl)cn2)Oc2cccc(C3CCN(Cc4nc5sc(C(=O)O)cc5n4C[C@@H]4CCO4)CC3)c2O1 (stereo partly drawn) [Compound 24, 2-((4-(2-(5-chloropyridin-2-yl)-2-methylbenzo[d][1,3]dioxol-4-yl)piperidin-1-yl)methyl)-1-(((S)-oxetan-2-yl)methyl)-1H-thieno[2,3-d]imidazole-5-carboxylic acid] | > 8.00 | > 8.00
N#Cc1ccc(COc2cccc(C3CCN(Cc4nc5sc(C(=O)O)cc5n4C[C@@H]4CCCO4)CC3)n2)c(F)c1 [Compound 12, (S)-2-((4-(6-((4-cyano-2-fluorobenzyl)oxy)pyridin-2-yl)piperidin-1-yl)methyl)-1-((tetrahydrofuran-2-yl)methyl)-1H-thieno[2,3-d]imidazole-5-carboxylic acid] | > 8.00 | > 8.00
